Measurements: paper PMC9967152 (International Journal of Molecular Sciences, 2023)
“Also recorded” adds a separate entry of the source. One block for each molecule: values may come before it. Where a SMILES comes first, the peptide text is derived from it. [ ]: non-standard residue; d: D form. The star is where a group is joined. Daunorubicin(13-NOCH2CO) = COc1cccc2c1C(=O)c1c(O)c3c(c(O)c1C2=O)C[C@@](O)(C(C)=NOCC(=O)*)C[C@@H]3O[C@H]1C[C@H](N)[C@H](O)[C@H](C)O1; Sta = CC(C)C[C@H](N)[C@@H](O)CC(=O)O; Nle = CCCC[C@H](N)C(=O)O; Aib = CC(C)(N)C(=O)O; βAla = NCCC(=O)O

Assays:
[1] = tested on: PC-3 human prostate adenocarcinoma cells; assay: MTT assay, in vitro cytostatic effect; assay type: cell-based; details: 24 h treatment at 3.125–25 µM, then cultured up to 72 h, mean ± SD, n = 2 independent experiments with four parallels
Protocol: (§1) Cells were distributed into 96-well tissue culture plates with an initial cell number of 5.0 × 10^3 per well. After 24 h incubation at 37 °C, the cells were treated with the compounds in 200 µL final volume containing 1.0 v/v% DMSO and 10% H2O. […] After incubation, the cells were washed twice with a serum-free medium. To determine the in vitro cytostatic effect, the cells were further cultured up to 72 h in a 10% serum-containing medium. A solution of 3-(4,5-dimethylthiazol-2-yl)-2,5-diphenyltetrazolium bromide and MTT-solution, (45 µL, 2 mg/mL, final concentration: […]) were added to each well. The respiratory chain [67] and other electron transport systems reduce MTT, and thereby form non-water-soluble violet formazan crystals within the cell. […] After 3 h of incubation, the cells were centrifuged for 5 min at 1000 g and the supernatant was removed. The obtained formazan crystals were dissolved in DMSO (100 μL) and the optical density (OD) of the samples was measured at λ = 540 and 620 nm, respectively, using ELISA Reader (iEMS Reader, Labsystems, Finland). OD620 values were subtracted from OD540 values. The percentage of cytostasis was calculated by using the following equation:Cytostatic effect (%) = [1 − (ODtreated/ODcontrol)] × 100(1)
(§2) Values of ODtreated and ODcontrol correspond to the optical densities of the treated and the control cells, respectively. In each case, two independent experiments were carried out with four parallel measurements. The 50% inhibitory concentration (IC50) values were determined from the dose–response curves. The curves were defined using Microcal™ Origin 2018 software: cytostasis was plotted as a function of concentration, fitted to a sigmoidal curve, and based on this curve, the half-maximal inhibitory concentration (IC50) value was determined. IC50 represents the concentration of a compound that is required for 50% inhibition in vitro and is expressed in micromolar units.

[2] = tested on: MDA-MB-453 human metastatic epithelial breast carcinoma cells; assay: MTT assay, in vitro cytostatic effect; assay type: cell-based; details: 24 h treatment at 3.125–25 µM, then cultured up to 72 h, mean ± SD, n = 2 independent experiments with four parallels
Protocol: as §1, §2

[3] = tested on: MDA-MB-231 human breast adenocarcinoma cells; assay: MTT assay, in vitro cytostatic effect; assay type: cell-based; details: 24 h treatment at 3.125–25 µM, then cultured up to 72 h, mean ± SD, n = 2 independent experiments with four parallels
Protocol: as §1, §2

[4] = Stability in incomplete (serum-free) DMEM; assay type: in vitro ADME; details: 25 µM, 37 °C, 600 rpm, LC–MS, n = 2
Protocol: The conjugates were incubated in incomplete DMEM for 3 h (similarly to the internalisation studies) or in 2.5% FBS containing DMEM for 24 h (conditions for the MTT assay). […] No significant loss of L1 and L5 (<20%) or L6 (<30%) was observed after 3 h (see Supplementary Materials, Figure S17).
DMSO stock solutions of the conjugates (2.5 mM) were diluted in DMEM free from or containing 2.5% FBS, to a final concentration of 25 μM. The mixture was incubated and stirred at 37 °C, 600 rpm, and 30 µL aliquots were collected after 0 min, 0.5, 1, 2, 4, 8 and 24 h, in duplicates. Then, to each sample, 90 µL of 0.1% formic acid containing MeCN was added and the samples were frozen at −25 °C for ≥30 min to aid protein precipitation. Large FBS components were removed by centrifugation (15 min, 5000 g, 4 °C). Aliquots of 50 µL supernatant were diluted with an equal volume of ddH2O + 0.1% formic acid and analysed by LC–MS. Control measurements were performed in the same manner (25 μM bioconjugate in 100% ddH2O).

[5] = tested on: PC-3 human prostatic adenocarcinoma xenograft in NOD-SCID mice; assay: In vivo tumour growth inhibition, subcutaneous PC-3 xenograft; design: species or system mouse; details: 10 mg/kg on Dau content i.p. every 5th day, n = 8
Protocol: The testing of the antitumour conjugates was carried out in a murine xenograft model. It was established by inoculating subcutaneously 100 µL of cell suspension of PC-3 prostate cancer cells with a concentration of 2 × 10^7 cells/mL.
Once the tumour volume reached 60 mm^3, mice were randomised and assigned to different groups for each treatment, respectively 0.9% saline as control, free daunorubicin, L5, and L6. Each group consisted of eight mice. Peptide–drug conjugates were injected intraperitoneally every 5th day, five times in total (daunorubicin dosage of 10 mg/kg for each treatment). In the case of free daunorubicin, two treatments were administered at the same time points as the first two treatments with conjugates, with a dosage of 1 mg/kg, the maximum tolerated dose (MTD). Weight and tumour size of mice were monitored throughout the whole experiment, two times per week. On day 33, mice were euthanized, and primary tumour, heart, lung, liver and spleen were harvested and stored in 4% formalin (Molar Chemicals, Halásztelek, Hungary). After 2–3 days of incubation in formalin, tissue samples were examined macroscopically. Organs and primary tumours from the different treatment groups were weighed and inspected under a stereomicroscope to see any occurrent changes in morphology compared to the controls.

[6] = tested on: healthy NOD-SCID mice; assay: In vivo chronic toxicity study in healthy mice; design: species or system mouse; details: 20 mg/kg calculated on Dau content, every 5th day, four treatments, n = 3
Protocol: Based on the stability assay performed in murine plasma, we decided to investigate L5 and L6 in vivo. To determine the dosage for the tumour growth inhibition experiment, we performed a chronic toxicity study using healthy mice. PDCs were administered every 5th day in three different doses calculated on the Dau content: 5 mg/kg, 10 mg/kg, and 20 mg/kg (Figure 4A). […] When 10 mg/kg drug was applied, the fitness of mice was not affected more than that of mice that received 5 mg/kg.
The toxicity experiments were done in healthy NOD-SCID mice. Treatments were administered every 5th day. Three different concentrations were tested, 5 mg/kg, 10 mg/kg and 20 mg/kg, respectively. Each group consisted of three mice. Mouse weight was monitored five times per week.

[7] = Stability in mouse plasma; assay type: in vitro ADME; details: 37 °C, HPLC-MS; for Time after which release of the toxic metabolite Dau=Aoa-Leu-OH starts: 10 µM, for L5 and L6 in a considerably low amount; for remaining at 24 h, 10 μM: 600 rpm, n = 3, read-out: Intact conjugate after one day (24 h)
Protocol: Due to their low IC50 values and internalisation on the tested cell lines, conjugates L1, L5 and L6 were chosen for investigation of their stability in mouse plasma, as potential candidates for in vivo studies. They were incubated at a concentration of 10 µM, with mouse plasma for 24 h at 37 °C. Samples were collected at 0 h, 30 min, 1 h, 2 h, 4 h, 8 h and 24 h and analysed by HPLC-MS. […] Furthermore, after 2 h, L1 starts to release the toxic metabolite Dau=Aoa-Leu-OH, whereas this happens only after 24 h for L5 and L6, in a considerably low amount (see Supplementary Materials, Figures S18–S20).
The conjugates were dissolved in ddH2O containing 10% DMSO (stock solution: 100 μM) and diluted with mouse plasma to a final concentration of 10 μM. The mixture was incubated and stirred at 37 °C, 600 rpm, and 30 µL aliquots were collected after 0 min, 0.5, 1, 2, 4, 8 and 24 h, in triplicates. Then, to each plasma sample, 90 µL of 0.1% formic acid containing MeCN was added, and the samples were frozen at −25 °C for ≥30 min to aid protein precipitation. Large plasma proteins were removed by centrifugation (15 min, 5000× g, 4 °C). Aliquots of 50 µL supernatant were diluted with an equal volume of ddH2O + 0.1% formic acid and analysed by LC–MS. Control measurements were performed in the same manner (10 μM bioconjugate in 100% ddH2O).

[8] = rat liver lysosomal homogenate; details: male Wistar rats, 37 °C, up to 72 h
[9] = mouse plasma; details: 37 °C, up to 24 h
[10] = incomplete DMEM; details: 37 °C, up to 3 h

Molecule: CCCC[C@H](NC(=O)C(C)(C)NC(=O)[C@H](Cc1c[nH]cn1)NC(=O)CCNC(=O)[C@@H](NC(=O)[C@H](C)NC(=O)[C@H](Cc1c[nH]c2ccccc12)NC(=O)[C@H](CCC(N)=O)NC(=O)[C@@H](Cc1ccccc1)NC(=O)[C@H](Cc1ccc(O)cc1)NC(=O)[C@H](CCCNC(=N)N)NC(=O)[C@H](CCCNC(=N)N)NC(=O)[C@H](CC(C)C)NC(=O)CON=C(C)[C@]1(O)Cc2c(O)c3c(c(O)c2[C@@H](O[C@H]2C[C@H](N)[C@H](O)[C@H](C)O2)C1)C(=O)c1c(OC)cccc1C3=O)C(C)C)C(N)=O ({Daunorubicin(13-NOCH2CO)}-LRRY[dF]QWAV[βAla]H[Aib][Nle]-NH2)
time to release of active metabolite Dau=Aoa-Leu-OH: < 30 min

Molecule: CC(=O)N[C@H](Cc1ccccc1)C(=O)N[C@@H](CCC(N)=O)C(=O)N[C@@H](Cc1c[nH]c2ccccc12)C(=O)N[C@@H](C)C(=O)N[C@H](C(=O)NCC(=O)N[C@@H](Cc1c[nH]cn1)C(=O)N[C@@H](CC(C)C)[C@@H](O)CC(=O)N[C@@H](CC(C)C)C(N)=O)C(C)C [FP1]
IC50 [1]: > 100 µM
IC50 [2]: > 100 µM
IC50 [3]: > 100 µM

Molecule: CCCC[C@H](NC(=O)C[C@H](O)[C@H](CC(C)C)NC(=O)[C@H](Cc1c[nH]cn1)NC(=O)CCNC(=O)[C@@H](NC(=O)[C@H](C)NC(=O)[C@H](Cc1c[nH]c2ccccc12)NC(=O)[C@H](CCC(N)=O)NC(=O)[C@@H](Cc1ccccc1)NC(C)=O)C(C)C)C(N)=O [FP2] (Ac-[dF]QWAV[βAla]H[Sta][Nle]-NH2)
IC50 [1]: > 100 µM
IC50 [2]: > 100 µM
IC50 [3]: > 100 µM

Molecule: COc1cccc2c1C(=O)c1c(O)c3c(c(O)c1C2=O)C[C@@](O)(C(C)=NOCC(=O)N[C@@H](CC(C)C)C(=O)N[C@@H](CCCNC(=N)N)C(=O)N[C@@H](CCCNC(=N)N)C(=O)N[C@@H](Cc1ccc(O)cc1)C(=O)N[C@H](Cc1ccccc1)C(=O)N[C@@H](CCC(N)=O)C(=O)N[C@@H](Cc1c[nH]c2ccccc12)C(=O)N[C@@H](C)C(=O)N[C@H](C(=O)NCC(=O)N[C@@H](Cc1c[nH]cn1)C(=O)N[C@@H](CC(C)C)[C@@H](O)CC(=O)N[C@@H](CC(C)C)C(N)=O)C(C)C)C[C@@H]3O[C@H]1C[C@H](N)[C@H](O)[C@H](C)O1 [L5, (Dau=Aoa)-LRRY-BBN[D-Phe6, Sta13, Leu14]] ({Daunorubicin(13-NOCH2CO)}-LRRY[dF]QWAVGH[Sta]L-NH2)
Loss of conjugate after 3 h [4]: < 20%
time to release of active metabolite Dau=Aoa-Leu-OH: < 30 min
Toxicity during the tumour growth inhibition experiment [5]: lower toxicity compared to free daunorubicin
Decrease in mouse weight [6]: 10–15%
Time after which release of the toxic metabolite Dau=Aoa-Leu-OH starts [7]: 24 h
remaining at 24 h, 10 μM [7]: > 80%

Molecule: CCCC[C@H](NC(=O)C[C@H](O)[C@H](CC(C)C)NC(=O)[C@H](Cc1c[nH]cn1)NC(=O)CCNC(=O)[C@@H](NC(=O)[C@H](C)NC(=O)[C@H](Cc1c[nH]c2ccccc12)NC(=O)[C@H](CCC(N)=O)NC(=O)[C@@H](Cc1ccccc1)NC(=O)[C@H](Cc1ccc(O)cc1)NC(=O)[C@H](CCCNC(=N)N)NC(=O)[C@H](CCCNC(=N)N)NC(=O)[C@H](CC(C)C)NC(=O)CON=C(C)[C@]1(O)Cc2c(O)c3c(c(O)c2[C@@H](O[C@H]2C[C@H](N)[C@H](O)[C@H](C)O2)C1)C(=O)c1c(OC)cccc1C3=O)C(C)C)C(N)=O [L6, (Dau=Aoa)-LRRY-BBN[D-Phe6, β-Ala11, Sta13, Nle14]] ({Daunorubicin(13-NOCH2CO)}-LRRY[dF]QWAV[βAla]H[Sta][Nle]-NH2)
Loss of conjugate after 3 h [4]: < 30%
Toxicity during the tumour growth inhibition experiment [5]: lower toxicity compared to free daunorubicin
Decrease in mouse weight [6]: 10–15%
Time after which release of the toxic metabolite Dau=Aoa-Leu-OH starts [7]: 24 h
remaining at 24 h, 10 μM [7]: > 80%

cleaved bond [8]: Leu-Arg, 15 min
fragment found [9]: Dau=Aoa-Leu-OH (M1), minor, 2 h
Molecule: Dau=Aoa-LRRY-QWAVGHL-Nle
fragment found [8]: Dau=Aoa-LR-OH; also recorded: Dau=Aoa-LRR-OH
not cleaved [10]: highly stable for 1.5 h; no significant loss (<20%) after 3 h

cleaved bond [8]: Leu-Arg, 15 min
Molecule: Dau=Aoa-LRRY-fQWAV-β-Ala-H-Aib-Nle
fragment found [8]: Dau=Aoa-LR-OH; also recorded: H2N-RY-fQWAV-β-Ala-H-Aib-Nle-NH2; also recorded: H2N-Y-fQWAV-β-Ala-H-Aib-Nle-NH2; also recorded: H2N-RY-fQW-OH

cleaved bond [8]: Leu-Arg, 15 min
fragment found [9]: Dau=Aoa-Leu-OH (M1), minor, 24 h
Molecule: Dau=Aoa-LRRY-fQWAV-β-Ala-H-Sta-Nle
fragment found [8]: Dau=Aoa-LR-OH; also recorded: H2N-RY-fQWAV-βAla-H-Sta-Nle-NH2; also recorded: H2N-Y-fQWAV-βAla-H-Sta-Nle-NH2; also recorded: H2N-RY-fQW-OH
not cleaved [10]: highly stable for 1.5 h; no significant loss (<30%) after 3 h

cleaved bond [8]: Leu-Arg, 15 min
fragment found [9]: Dau=Aoa-Leu-OH (M1), minor, 24 h
Molecule: Dau=Aoa-LRRY-fQWAVGH-Sta-L
fragment found [8]: Dau=Aoa-LR-OH; also recorded: H2N-RY-fQWAVGH-Sta-L-NH2; also recorded: H2N-VGH-Sta-L-NH2; also recorded: H2N-GH-Sta-L-NH2; also recorded: H2N-RY-fQW-OH; also recorded: H2N-RYfQ-OH
not cleaved [10]: highly stable for 1.5 h; no significant loss (<20%) after 3 h
